Measured values taken from ChEMBL document CHEMBL1149983, “Probing the S-1 subsite selectivity of an industrial alkaline protease in anhydrous t-butanol” (Bioorg Med Chem Lett, 1993).
Peptide text beside a SMILES is read from it. * marks the point of attachment. Cbz = O=C(OCc1ccccc1)*

Assay: Reaction time taken for industrial alkaline protease catalyzed synthesis using CBz-Phe-OCP as acyl donor and Gly-NH2 as nucleophile

Row | SMILES | Reaction time [h]
1 | CC(C)C[C@H](NC(=O)[C@H](Cc1ccccc1)NC(=O)OCc1ccccc1)C(N)=O | 1
2 | CCCOC(=O)[C@@H](C)NC(=O)[C@H](CC(=O)OCc1ccccc1)NC(=O)OCc1ccccc1 | 2
3 | NC(=O)[C@@H](Cc1ccccc1)NC(=O)[C@H](Cc1ccccc1)NC(=O)OCc1ccccc1 | 2
4 | NC(=O)[C@H](Cc1ccccc1)NC(=O)[C@H](Cc1ccccc1)NC(=O)OCc1ccccc1 | 1

Other lines, results leading:

Row | Reaction time [h] | SMILES
5 | 1 | CC(C)C[C@H](NC(=O)CNC(=O)[C@H](Cc1ccccc1)NC(=O)OCc1ccccc1)C(N)=O (Cbz-Phe-Gly-Leu-NH2)
6 | 1 | NC(=O)[C@H](Cc1ccccc1)NC(=O)CNC(=O)[C@H](Cc1ccccc1)NC(=O)OCc1ccccc1 (Cbz-Phe-Gly-Phe-NH2)
7 | 1.5 | NC(=O)CNC(=O)CNC(=O)[C@H](Cc1ccccc1)NC(=O)OCc1ccccc1 (Cbz-Phe-Gly-Gly-NH2)
8 | 1.5 | CC(C)C[C@@H](NC(=O)[C@H](Cc1ccccc1)NC(=O)OCc1ccccc1)C(N)=O
9 | 1 | NC(=O)CNC(=O)[C@H](Cc1ccccc1)NC(=O)OCc1ccccc1 (Cbz-Phe-Gly-NH2)
